The record followed here is patent publication US10144762B2, “Antibacterial antisense oligonucleotide and method” (priority 2005, dated 2018).

Values after ≈ are worked out from the molar mass of the structure shown. Values joined by “and” are separate entries in the source; they are usually repeats but may differ in a detail not shown here. Equal entries are not always repeated. Where two headings read alike, the source gives them in different places.

Data set [1] deals with E. coli W3110. In words: MIC, broth microdilution method of the Clinical and Laboratory Standards Institute. The data set is classed as cell-based. Conditions: Escherichia coli, read-out: minimum inhibitory concentration (MIC). In general terms: In broth dilution the organism is exposed to a series of concentrations in liquid medium.
Data set [2] has as its system E. coli W3110. In words: E. coli W3110 pure culture, CFU/ml and dose-response. The data set is classed as cell-based.
Data set [3] has as its system luciferase transcript. Also noted: species or system firefly. Conditions: in vivo.
Data set [4] concerns E. coli AS19 (pT7myc-luc). The data set is classed as in vivo. Conditions: mice; for CFU/ml (×10^6): peritoneal lavage.
In data set [5] the test system is luciferase transcript. In words: Western blot of luciferase protein normalized to OmpA in peritoneal lavage bacteria. The data set is classed as in vivo, firefly. Also noted: Western Blot % Inhibition (luciferase protein): concentration or dose not given beside the values. The following applies: for Western Blot % Inhibition (luciferase protein): compared to nonsense PMO-treated mice; for Western Blot Luc/OmpA Mean: n = 7-8. Background: Immunoblotting shows a protein as a band on a membrane.

Data set [6] concerns E. coli AS19. The data set is classed as cell-based.

`CC1(C)S[C@@H]2[C@H](NC(=O)[C@H](N)c3ccccc3)C(=O)N2[C@H]1C(=O)O` [ampicillin]: in data set [1], the MIC was determined as 10 µM (≈ 3.49 µg/mL). The “antibacterial activity (CFU/ml after 8 hours)” value in data set [2] (E. coli W3110 (FIG. 13)) is reported as “showed antibacterial activity”. In addition, in data set [2] (Escherichia coli, E. coli W3110 pure culture (FIG. 14), read-out: IC50 (50% inhibitory concentration)), the IC50 stood at 7.7 µM.

As for “Luc: PMO complementary to the region around the start codon of the luciferase transcript, ACG TTG AGG C, SEQ ID NO 77 (antisense ACGTTGAGGC; all phosphorodiamidate morpholino (PMO))”, in data set [3], the “Luciferase Activity % Inhibition” value is 53% and 46%. In data set [3], the “Luciferase Activity RLU/CFU Mean” value was 3.20 RLU/CFU and 2.90 RLU/CFU. In addition, the “CFU/ml (×10^6)” value is recorded as 6.3 ×10^6 CFU/ml in data set [4] (13 h after treatment) and 0.96 ×10^6 CFU/ml in data set [4] (22 h after treatment). Further, the “inhibition of growth compared to nonsense PMO treatment” value in data set [4] (treated at 0 and 13 hours post-infection) was “no inhibition of growth”. For the same compound, the “Western Blot % Inhibition (luciferase protein)” value came out at 68% in data set [5] (13 h); 57% in data set [5] (22 h); 47% in data set [5] (22 h, listed as luc PMO). In addition, the “Western Blot Luc/OmpA Mean” value is listed as 0.122 in data set [5] (13 h after treatment) and 0.147 in data set [5] (22 h after treatment).

For “PMO 62-4: acpP-14mer PMO, TC GAT AGT GCT CAT, SEQ ID NO 65 (antisense TCGATAGTGCTCAT; all phosphorodiamidate morpholino (PMO))”, in data set [6], the “growth monitored by optical density” value was “statistically insignificant inhibitions” and the “viable cells (CFU/ml)” value is “significantly reduced”.

Turning to “Nonsense: nonsense PMO control for luc PMO, TCC ACT TGC C, SEQ ID NO 78 (TCCACTTGCC; all phosphorodiamidate morpholino (PMO)) [reference compound]”, in data set [3], the “Luciferase Activity RLU/CFU Mean” value was 6.19 RLU/CFU and 8.12* RLU/CFU. Besides, the figures for the “CFU/ml (×10^6)” value in data set [4] (13 h after treatment) and in data set [4] (22 h after treatment) were 4.3 ×10^6 CFU/ml and 0.39 ×10^6 CFU/ml, respectively. Further, the “Western Blot % Inhibition (luciferase protein)” value in data set [5] (13 h) and in data set [5] (22 h) was 0% throughout. For the same compound, the “Western Blot Luc/OmpA Mean” value in data set [5] (13 h after treatment) amounted to 0.382; in data set [5] (22 h after treatment) it was 0.339.
